Publication PMC3307704 (PLoS ONE, 2012)
Entries after “also recorded” stand apart in the source; their conditions may differ. Read-outs that look alike come from different tables or passages of the source.

Experiments:
[1] = molecular target: T1, Human Aβ(1–42) (Homo sapiens, UniProt P05067); test: Aβ peptide oligomerization reaction with capture ELISA for Aβ oligomer detection; assay type: biochemical; settings: for inhibition at 1 µM: read-out: Inhibitory activity (Aβ oligomerization)
T1 construct: Human Aβ(1–42) was purchased from AnaSpec (San Jose, CA); purchased AnaSpec (San Jose, CA)

[2] = tested on: Aβ deposition in aged APP(Swedish)-transgenic mice (Tg2576); settings: dietary supplement; cited from earlier work
[3] = tested on: high-molecular weight fibrils (Aβ); settings: in vitro; read-out: IC50, formation of high-molecular weight fibrils; cited from earlier work
[4] = tested on: Murine microglial cells; test: Wst-1 assay (cytotoxicity); assay type: cell-based; settings: 24 h
[5] = tested on: low-molecular weight Aβ oligomers; settings: in vitro; read-out: IC50, formation of low-molecular weight Aβ oligomers; cited from earlier work
[6] = tested on: Aβ aggregation; settings: saturation of the 7-carbon linker; cited from earlier work
[7] = 1 µM compound, 200 nM monomeric Aβ peptide, 37°C, 24 h, capture ELISA

T1 sequence (P05067 672-713 limits assumed): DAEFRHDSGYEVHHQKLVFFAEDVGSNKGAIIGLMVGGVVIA

| SMILES | inhibition at 1 µM [1, 7] [%] | other results |
| --- | --- | --- |
| COc1cc(/C=C/C(=O)CC(=O)/C=C/c2ccc(O)c(OC)c2)ccc1O [curcumin] | – | Effect on Aβ deposition [2]: reduced Aβ deposition; also recorded: significantly lowered Aβ deposition; IC50 [3]: 800 nM; LD50 value (cytotoxicity, Wst-1) [4]: 40 µM; IC50 [5]: 1000 nM; inhibition at 1 µM [1]: 50% |
| COc1cc(/C=C/C(=O)/C=C/c2ccc(O)c(OC)c2)ccc1O [compound 14] | – | inhibition at 1 µM [1]: 58% |
| COc1cc(/C=C/C(=O)/C(Cc2ccccc2)=C(O)/C=C/c2ccc(O)c(OC)c2)ccc1O [compound 4] | 51 | – |
| O=C(/C=C/c1cccc(Cl)c1)/C=C/c1cccc(Cl)c1 [compound 15] | 58 | – |
| COC(=O)c1ccc(/C=C/C(=O)/C=C/c2ccc(C(=O)OC)cc2)cc1 [compound 9] | 66 | – |
| COc1cc(/C=C/C(=O)/C(C)=C(O)/C=C/c2ccc(O)c(OC)c2)ccc1O [compound 3] | 66 | – |
| O=C(/C=C/c1ccc(O)cc1)/C=C/c1ccc(O)cc1 [compound 20] | 49 | – |
| O=C(/C=C/c1cccc(C(F)(F)F)c1)/C=C/c1cccc(C(F)(F)F)c1 [compound 17] | 55 | – |
| O=C(/C=C/c1ccc(O)c(O)c1)/C=C/c1ccc(O)c(O)c1 [compound 8] | 74 | – |
| COc1cccc(/C=C/C(=O)/C=C/c2cccc(OC)c2)c1 [compound 16] | 56 | – |
| Cc1ccc(/C=C/C(=O)/C=C/c2ccc(C)cc2)cc1 [compound 13] | 62 | – |
| COc1cc(CCC(=O)CC(=O)CCc2ccc(O)c(OC)c2)ccc1O [tetrahydrocurcumin] | – | Aβ aggregation inhibitory activity [6]: abolished Aβ aggregation inhibitory activity |
| COc1ccc(/C=C/C(=O)/C=C(O)/C=C/c2ccc(OC)c(OC)c2)cc1OC [compound 2] | – | LD50 value relative to that of curcumin ([4]; printed as fold lower than curcumin): approximately 2 fold; IC50 [1]: 150 nM; Improvement of Aβ aggregation inhibitory activity over curcumin ([1]; ratio of IC50 values versus curcumin): 6-7 fold; inhibition at 1 µM [1]: 75% |

More lines, main results first:

| inhibition at 1 µM [1, 7] [%] | SMILES | other results |
| --- | --- | --- |
| 63 | COc1cc(/C=C/C(=O)/C=C/c2ccccc2)ccc1O [compound 11] | – |
| 80 | COc1ccc(/C=C/C(=O)/C=C(O)/C=C/c2ccc(OC)c(O)c2)cc1O [compound 1] | – |
| 45 | COc1cccc(/C=C/C(=O)/C=C(O)/C=C/c2cccc(OC)c2OC)c1OC [compound 7] | – |
| 63 | COc1ccccc1/C=C/C(=O)/C=C/c1ccccc1OC [compound 12] | – |
| 53 | COc1cc(/C=C/C(=O)/C=C/c2ccc(OC(C)=O)c(OC)c2)ccc1OC(C)=O [compound 19] | – |
| 54 | CN(C)c1ccc(/C=C/C(=O)/C=C/c2ccc(N(C)C)cc2)cc1 [compound 18] | – |
| 65 | O=C(/C=C/c1ccccc1)/C=C/c1ccccc1 [compound 10] | – |
